Source: patent US20250002954A1, “Novel Compound, Use Thereof, and Method for Producing Same, and Compound-Containing Composition, Method for Producing 4-Trehalosamine, and Microorganism” (Microbial Chemistry Research Foundation, priority 2021, published 2025)

Key:
Bacillus subtilis 168 = experiment: Evaluation of Bacillus subtilis protective activity in freeze-dried condition; format: cell-based; conditions: for Numbers of live bacterial cells (relative numbers): Bacillus subtilis freeze-dried with 6% aqueous solution (final concentration 3%), test sample 3 (FD) = 1
Description: Using test samples 1 to 5 containing Bacillus subtilis prepared in the following manner, microorganism-protective activity with trehalose or 4-trehalosamine in a freeze-dried condition was evaluated.
Frozen stock of Bacillus subtilis (Bacillus subtilis 168 (obtained from ATCC)) was inoculated in 10 mL of Luria-Bertani (LB) culture medium (manufactured by Difco) and cultured at 37° C. for 24 hours while shaking it at 220 rpm. After culture, it was centrifuged at 3,000×g for 5 minutes, washed once with 10 mL of water, and then suspended in 10 mL of water, thus obtaining Bacillus subtilis suspension. 50 μL of water was added to and mixed with 50 μL of this Bacillus subtilis suspension, and the mixture was left to stand at 4° C. for 20 hours, preparing control (NF).
After Bacillus subtilis suspension was prepared in a similar manner to test sample 1, 50 μL of 6% aqueous solution of trehalose was added to and mixed with 50 µL of the Bacillus subtilis suspension, and the mixture was frozen at −80° C. for 10 minutes. It was then freeze-dried for 20 hours with a freeze dryer (FLEXI-DRY, manufactured by FTS systems INC., Warminster) connected to a vacuum pump (P65D, manufactured by PHIL Sato Vac INC.), preparing freeze-dried product (TRH) of Bacillus subtilis with TRH.
Freeze-dried product (4TA) of Bacillus subtilis with 4TA was obtained in a similar manner to the preparation method of test sample 4 except that trehalose was changed to 4-trehalosamine (4TA) in the preparation method of test sample 4.
For test samples 1 and 2, serial suspensions were made by diluting them to 1/10 with water. 100 μL of water was added to each of the freeze-dried products of test samples 3 to 5 and diluted to 1/10 with water to make their serial suspensions. […]
Wells in which the number of colonies was measurable were selected and the numbers (relative numbers) of live bacterial cells per well on test samples 1, 2, 4, and 5 when the number of live bacterial cells per well on test sample 3 (FD) was “1” were calculated in consideration of the dilution concentrations of those test samples.

[1] = test system: human ovarian cancer cells OVK18 and human malignant melanoma cells Mewo; experiment: LC3-II expression in combination with autophagy inhibitor (bafilomycin or chloroquine); format: cell-based; conditions: 50 mM 4-trehalosamine, 50 μM IMCTA-C14 or 100 mM trehalose 14 hours, then 200 nM BM or 100 μM CQ 4 hours
Description: As with the test example 10-1, human ovarian cancer cells OVK18 (obtained from RIKEN BRC) and human malignant melanoma cells Mewo (JCRB0066) were each inoculated on a 12-well microplate at 8×10^4 cells/mL/well, and cultured in DMEM culture medium at 37° C. for 72 hours. After that, a half of the culture fluid in each well was taken and each compound was dissolved so that the final concentration is 50 mM 4-trehalosamine, 50 μM IMCTA-C14, or 100 mM trehalose. After dissolving it sufficiently, the cells were returned to the original well and treated at 37° C. for 14 hours. Untreated cells without addition of the compounds were used as control.
After that, each autophagy inhibitor was added so that the final concentration is 200 nM bafilomycin (BM) or 100 μM chloroquine (CQ), and the cells were cultured at 37° C. for 4 hours. A group with no inhibitor added was cultured in a similar way. After culture, they were turned into samples for western blotting in a similar manner to test example 10-1.
The western blotting was performed in a similar manner to test example 4 except that anti-LC3 antibody (manufactured by Cell Signaling Technology) was used at 1/2,000 dilution as the primary antibody in the method described in test example 4. The results for human ovarian cancer cells OVK18 are shown in FIG. 21A, and the results for human malignant melanoma cells Mewo are shown in FIG. 21B.
Also, the results (graphs) of image analysis on the results of western blotting via Image J (manufactured by National Institutes of Health) are shown in FIGS. 21A and 21B (n=10, mean±S.D.). The vertical axis of the graph indicates the value of the amount of expression (expression amount ratio) of LC3-II for the groups with the different compounds added when the amount of expression of LC3-II in the control (untreated cells) is 1. […]

## OC[C@H]1O[C@H](O[C@H]2O[C@H](CO)[C@@H](O)[C@H](O)[C@H]2O)[C@H](O)[C@@H](O)[C@@H]1O [trehalose, reference compound]
Bacillus subtilis 168
  Numbers of live bacterial cells (relative numbers): 10
[1]
  expression of LC3-II in combination with bafilomycin (BM) or chloroquine (CQ): increased expression of LC3-II

## N[C@H]1[C@H](O)[C@@H](O)[C@@H](O[C@H]2O[C@H](CO)[C@@H](O)[C@H](O)[C@H]2O)O[C@@H]1CO [4-trehalosamine]
Bacillus subtilis 168
  Numbers of live bacterial cells (relative numbers): 100
Bacillus subtilis 168; Bacillus subtilis, freeze-dried
  protective effect on microorganisms, comparison: stronger than when trehalose was added
[1]
  expression of LC3-II in combination with bafilomycin (BM) or chloroquine (CQ): increased expression of LC3-II
